Test results: PMC4600463 (European journal of medicinal chemistry, 2015)
“Also recorded” adds a separate entry of the source.

molecular target: Keap1 (Kelch domain) (Homo sapiens, UniProt Q14145); details: SAR discussion
Sequence (Q14145 321-609): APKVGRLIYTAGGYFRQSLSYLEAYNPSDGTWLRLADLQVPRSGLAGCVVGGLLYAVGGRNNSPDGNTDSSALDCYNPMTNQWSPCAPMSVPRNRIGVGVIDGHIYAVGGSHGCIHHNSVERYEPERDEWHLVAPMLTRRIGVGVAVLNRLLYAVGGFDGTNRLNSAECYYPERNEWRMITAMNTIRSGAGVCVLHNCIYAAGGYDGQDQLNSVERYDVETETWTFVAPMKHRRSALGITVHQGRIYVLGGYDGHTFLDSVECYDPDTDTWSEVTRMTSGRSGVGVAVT

Structure (SMILES) | Activity in fluorescence anisotropy assay (in words)
O=S(=O)(Nc1ccc(NS(=O)(=O)c2ccccc2)c2ccccc12)c1ccccc1 [Compound 11a, N,N′-(naphthalene-1,4-diyl)dibenzenesulfonamide] | inactive
O=C(O)c1cccc(S(=O)(=O)Nc2ccc(NS(=O)(=O)c3cccc(C(=O)O)c3)c3ccccc23)c1 [Compound 11d, 3,3′-(((4-(hydrosulfonylamino)naphthalen-1-yl)amino)sulfonyl)dibenzoic acid] | inactive
O=S(=O)(Nc1ccc(NS(=O)(=O)c2cccc(C(F)(F)F)c2)c2ccccc12)c1cccc(C(F)(F)F)c1 [Compound 11f, N,N′-(naphthalene-1,4-diyl)bis(3-trifluoromethylbenzenesulfonamide)] | inactive
COc1ccc(S(=O)(=O)Nc2cccc3ccccc23)cc1 [Compound 17, 4-methoxy-N-(naphthalen-1-yl)benzenesulfonamide] | inactive
COc1ccc(S(=O)(=O)N(CC(=O)O)c2cccc3ccccc23)cc1 [Compound 18, N-((4-methoxyphenyl)sulfonyl)-N-(naphthalen-1-yl)glycine] | inactive
COc1ccc(S(=O)(=O)Nc2cc(NS(=O)(=O)c3ccc(OC)cc3)c3ccccc3c2)cc1 [Compound 19, N,N′-(naphthalene-1,3-diyl)bis(4-methoxybenzenesulfonamide)] | loss of activity
COc1ccc(S(=O)(=O)Nc2cc3ccccc3cc2NS(=O)(=O)c2ccc(OC)cc2)cc1 [Compound 20, N,N′-(naphthalene-2,3-diyl)bis(4-methoxybenzenesulfonamide)] | loss of activity
COc1ccc(S(=O)(=O)N(CC(N)=O)c2cc(N(CC(N)=O)S(=O)(=O)c3ccc(OC)cc3)c3ccccc3c2)cc1 [Compound 21, 2,2′-(naphthalene-1,3-diylbis(((4-methoxyphenyl)sulfonyl)azanediyl))diacetamide] | loss of activity; also recorded: inactive
COc1ccc(S(=O)(=O)N(CC(=O)O)c2cc(N(CC(=O)O)S(=O)(=O)c3ccc(OC)cc3)c3ccccc3c2)cc1 [Compound 22, 2,2′-(naphthalene-1,3-diylbis(((4-methoxyphenyl)sulfonyl)azanediyl))acetic acid] | loss of activity
COc1ccc(S(=O)(=O)Nc2cc3ccccc3cc2N(CC(N)=O)S(=O)(=O)c2ccc(OC)cc2)cc1 [Compound 23, 2-(naphthalene-2,3-diylbis(((4-methoxyphenyl)sulfonyl)azanediyl))acetamide] | loss of activity; also recorded: inactive
